Experimental data reported in US20240228504A1, “SUBSTITUTED TRICYCLIC AMIDES, ANALOGUES THEREOF, AND METHODS USING SAME” (Arbutus Biopharma Corporation, priority 2020, published 2024).
Where two headings read alike, the source gives them in different places.

Test system: HBV rcDNA in HepDE19 cells
Assay: HepDE19 assay with bDNA quantitation of HBV rcDNA
Type: cell-based, hepatitis B virus
Conditions: inhibition of rcDNA formation, bDNA quantitation, read-out: DE-19bDNA EC50
[1] = Hepatitis B virus, HepDE19, HepDE19 assay

**Q.** CN(C(=O)c1ccc2cccn2c1)C1COCc2[nH]c(=O)c3cc(F)ccc3c21 (single isomer, unassigned) [Compound 389, N-(8-Fluoro-6-oxo-1,4,5,6-tetrahydro-2H-pyrano[3,4-c]isoquinolin-1-yl)-N-methylindolizine-6-carboxamide] was tested. Which EC50 (HepDE19 assay) did it give?
**A.** The EC50 was 17000 nM.

**Q.** How did the EC50 [1] turn out when CN(C(=O)c1cc2cc(F)c(F)cc2[nH]1)[C@@H]1CCCc2[nH]c(=O)c3cc(F)ccc3c21 [Compound 490, (R)-5,6-difluoro-N-(8-fluoro-6-oxo-1,2,3,4,5,6-hexahydrophenanthridin-1-yl)-N-methyl-1H-indole-2-carboxamide] was run?
**A.** The EC50 was 20 nM.

**Q.** For CN(C(=O)c1cc(F)c(Br)cc1F)[C@@H]1COCc2[nH]c(=O)c3cc(F)c(F)cc3c21 [Compound 245, (S)-4-Bromo-N-(8,9-difluoro-6-oxo-1,4,5,6-tetrahydro-2H-pyrano[3,4-c]isoquinolin-1-yl)-2,5-difluoro-N-methylbenzamide], which EC50 [1] is on record?
**A.** Its EC50 is 170 nM.

**Q.** Which EC50 (HepDE19 assay) does the source give for CN(C(=O)c1cc2sccc2[nH]1)C1COCc2[nH]c(=O)c3cc(F)ccc3c21 (single isomer, unassigned) [Compound 381, N-(8-Fluoro-6-oxo-1,4,5,6-tetrahydro-2H-pyrano[3,4-c]isoquinolin-1-yl)-N-methyl-4H-thieno[3,2-b]pyrrole-5-carboxamide] here?
**A.** Its EC50 is 40 nM.

**Q.** With Cc1cccc2[nH]c(C(=O)N(C)[C@@H]3CCCc4[nH]c(=O)c5cc(F)c(F)cc5c43)cc12 [Compound 484, (R)-N-(8,9-difluoro-6-oxo-1,2,3,4,5,6-hexahydrophenanthridin-1-yl)-N,4-dimethyl-1H-indole-2-carboxamide] as the compound, how does the EC50 [1] read?
**A.** The EC50 was 10 nM.

**Q.** With Cc1cc(F)cc2[nH]c(C(=O)N(C)C3CNCc4[nH]c(=O)c5cc(F)c(F)cc5c43)cc12 (single isomer, unassigned) [Compound 458, N-(8,9-difluoro-6-oxo-1,2,3,4,5,6-hexahydrobenzo[c][1,7]naphthyridin-1-yl)-6-fluoro-N,4-dimethyl-1H-indole-2-carboxamide] as the compound, how does the EC50 (HepDE19 assay) read?
**A.** Its EC50 is 6600 nM.

**Q.** CN(C(=O)c1cc2cc(F)ccc2[nH]1)C1CNCc2[nH]c(=O)c3cc(F)c(F)cc3c21 (single isomer, unassigned) [Compound 102, N-(8,9-Difluoro-6-oxo-1,2,3,4,5,6-hexahydrobenzo[c][1,7]naphthyridin-1-yl)-5-fluoro-N-methyl-1H-indole-2-carboxamide] was tested. Which EC50 (HepDE19 assay) did it give?
**A.** The EC50 was 1800 nM.

**Q.** How did the EC50 [1] turn out when CN(C(=O)c1cc2cc(F)c(F)cc2[nH]1)[C@@H]1COCc2c1c1cc(F)c(F)cc1c(=O)n2C [Compound 240, (S)-N-(8,9-Difluoro-5-methyl-6-oxo-1,4,5,6-tetrahydro-2H-pyrano[3,4-c]isoquinolin-1-yl)-5,6-difluoro-N-methyl-1H-indole-2-carboxamide] was run?
**A.** Its EC50 is 10 nM.

**Q.** Cc1nn(C(F)F)c2ccc(C(=O)N(C)[C@@H]3COCc4[nH]c(=O)c5cc(F)c(F)cc5c43)cc12 [Compound 417, (S)-N-(8,9-Difluoro-6-oxo-1,4,5,6-tetrahydro-2H-pyrano[3,4-c]isoquinolin-1-yl)-1-(difluoromethyl)-N,3-dimethyl-1H-indazole-5-carboxamide] was tested. Which EC50 [1] did it give?
**A.** Its EC50 is 20 nM.

**Q.** How did the EC50 [1] turn out when O=C(N[C@@H]1COCc2[nH]c(=O)c3cc(F)c(F)cc3c21)c1cc2cc(F)c(F)cc2[nH]1 [Compound 156, (S)-N-(8,9-Difluoro-6-oxo-1,4,5,6-tetrahydro-2H-pyrano[3,4-c]isoquinolin-1-yl)-5,6-difluoro-1H-indole-2-carboxamide] was run?
**A.** The EC50 was 490 nM.

**Q.** With CN(C(=O)c1cc2c(F)cccn2c1)C1COCc2[nH]c(=O)c3cc(F)c(F)cc3c21 (single isomer, unassigned) [Compound 9, N-(8,9-Difluoro-6-oxo-1,4,5,6-tetrahydro-2H-pyrano[3,4-c]isoquinolin-1-yl)-8-fluoro-N-methylindolizine-2-carboxamide] as the compound, how does the EC50 (HepDE19 assay) read?
**A.** The EC50 was 3300 nM.

**Q.** CN(C(=O)c1ccn2ccccc12)[C@@H]1COCc2[nH]c(=O)c3cc(F)c(F)cc3c21 [Compound 261, (S)-N-(8,9-Difluoro-6-oxo-1,4,5,6-tetrahydro-2H-pyrano[3,4-c]isoquinolin-1-yl)-N-methylindolizine-1-carboxamide] was tested. Which EC50 [1] did it give?
**A.** The EC50 was 6400 nM.

**Q.** For CN(C(=O)c1cccc(Oc2ccc(F)cc2)c1)[C@@H]1COCc2[nH]c(=O)c3cc(F)c(F)cc3c21 [Compound 293, (S)-N-(8,9-Difluoro-6-oxo-1,4,5,6-tetrahydro-2H-pyrano[3,4-c]isoquinolin-1-yl)-3-(4-fluorophenoxy)-N-methylbenzamide], which EC50 [1] is on record?
**A.** Its EC50 is 7600 nM.

**Q.** With CN(C(=O)c1cc2ccccc2[nH]1)C1CNCc2[nH]c(=O)c3cc(F)c(F)cc3c21 (single isomer, unassigned) [Compound 54, N-(8,9-Difluoro-6-oxo-1,2,3,4,5,6-hexahydrobenzo[c][1,7]naphthyridin-1-yl)-N-methyl-1H-indole-2-carboxamide] as the compound, how does the EC50 (HepDE19 assay) read?
**A.** Its EC50 is 850 nM.

**Q.** [2H][C@@]1(N(C(=O)c2cc3cc(F)c(C(F)F)cc3[nH]2)[13C]([2H])([2H])[2H])COCc2[nH]c(=O)c3cc(F)c(F)cc3c21 [Compound 515, (S)-N-(8,9-Difluoro-6-oxo-1,4,5,6-tetrahydro-2H-pyrano[3,4-c]isoquinolin-1-yl-1-d)-6-(difluoromethyl)-5-fluoro-N-(methyl-^13C-d3)-1H-indole-2-carboxamide] was tested. Which EC50 [1] did it give?
**A.** The EC50 was 10 nM.

**Q.** With CN(C(=O)c1cnn(C)c1)[C@@H]1COCc2[nH]c(=O)c3cc(F)c(F)cc3c21 [Compound 188, (S)-N-(8,9-Difluoro-6-oxo-1,4,5,6-tetrahydro-2H-pyrano[3,4-c]isoquinolin-1-yl)-N,1-dimethyl-1H-pyrazole-4-carboxamide] as the compound, how does the EC50 [1] read?
**A.** Its EC50 is 18300 nM.

**Q.** For CN(C(=O)c1ccc(C(F)(F)F)cc1)[C@@H]1COCc2[nH]c(=O)c3cc(F)c(F)cc3c21 [Compound 98, (S)-N-(8,9-Difluoro-6-oxo-1,4,5,6-tetrahydro-2H-pyrano[3,4-c]isoquinolin-1-yl)-N-methyl-4-(trifluoromethyl)benzamide], which EC50 [1] is on record?
**A.** Its EC50 is 10 nM.

**Q.** With CN(C(=O)C(N)c1cccc(Cl)c1)[C@@H]1COCc2[nH]c(=O)c3cc(F)c(F)cc3c21 (single isomer, unassigned) [Compound 202] as the compound, how does the EC50 [1] read?
**A.** The EC50 was 16000 nM.

**Q.** How did the EC50 (HepDE19 assay) turn out when CN(C(=O)c1cc2c(F)c(F)ccc2[nH]1)C1CNCc2[nH]c(=O)c3cc(F)c(F)cc3c21 (single isomer, unassigned) [Compound 120, N-(8,9-Difluoro-6-oxo-1,2,3,4,5,6-hexahydrobenzo[c][1,7]naphthyridin-1-yl)-4,5-difluoro-N-methyl-1H-indole-2-carboxamide] was run?
**A.** The EC50 was 850 nM.

**Q.** For CN(C(=O)c1cc2ccc(F)cc2[nH]1)C1COCc2[nH]c(=O)c3cc(F)c(F)cc3c21 (single isomer, unassigned) [Compound 25, N-(8,9-Difluoro-6-oxo-1,4,5,6-tetrahydro-2H-pyrano[3,4-c]isoquinolin-1-yl)-6-fluoro-N-methyl-1H-indole-2-carboxamide], which EC50 (HepDE19 assay) is on record?
**A.** Its EC50 is 820 nM.

**Q.** CN(C(=O)[C@@](C)(O)c1ccccc1)[C@@H]1COCc2[nH]c(=O)c3cc(F)c(F)cc3c21 [Compound 93, (S)-N-((S)-8,9-Difluoro-6-oxo-1,4,5,6-tetrahydro-2H-pyrano[3,4-c]isoquinolin-1-yl)-2-hydroxy-N-methyl-2-phenylpropanamide] was tested. Which EC50 [1] did it give?
**A.** Its EC50 is 12000 nM.

**Q.** For CN(C(=O)c1cc2ccccc2[nH]1)C1COCc2[nH]c(=O)c3cc(F)ccc3c21 (single isomer, unassigned) [Compound 1, N-(8-Fluoro-6-oxo-1,4,5,6-tetrahydro-2H-pyrano[3,4-c]isoquinolin-1-yl)-N-methyl-1H-indole-2-carboxamide], which EC50 (HepDE19 assay) is on record?
**A.** Its EC50 is 8600 nM.

**Q.** How did the EC50 [1] turn out when CN(C(=O)c1cc2ccccn2n1)[C@@H]1COCc2[nH]c(=O)c3cc(F)c(F)cc3c21 [Compound 64, (S)-N-(8,9-Difluoro-6-oxo-1,4,5,6-tetrahydro-2H-pyrano[3,4-c]isoquinolin-1-yl)-N-methylpyrazolo[1,5-a]pyridine-2-carboxamide] was run?
**A.** The EC50 was 630 nM.

**Q.** For CN(C(=O)c1cc2cccc(C(F)F)n2c1)C1CNCc2[nH]c(=O)c3cc(F)c(F)cc3c21 (single isomer, unassigned) [Compound 433, N-(8,9-Difluoro-6-oxo-1,2,3,4,5,6-hexahydrobenzo[c][1,7]naphthyridin-1-yl)-5-(difluoromethyl)-N-methylindolizine-2-carboxamide], which EC50 (HepDE19 assay) is on record?
**A.** Its EC50 is 50 nM.

**Q.** For Cc1cc2ccc(C(=O)N(C)[C@@H]3COCc4[nH]c(=O)c5cc(F)c(F)cc5c43)cn2c1 [Compound 277, (S)-N-(8,9-Difluoro-6-oxo-1,4,5,6-tetrahydro-2H-pyrano[3,4-c]isoquinolin-1-yl)-N,2-dimethylindolizine-6-carboxamide], which EC50 [1] is on record?
**A.** The EC50 was 420 nM.

**Q.** With CN(C(=O)c1cc2cc(F)c(F)cc2[nH]1)[C@@H]1COCc2c1c1cc(F)c(F)cc1c(=O)n2CCN [Compound 316] as the compound, how does the EC50 [1] read?
**A.** Its EC50 is 390 nM.

**Q.** Which EC50 [1] does the source give for CNS(=O)(=O)c1cccc(C(=O)N(C)C2CNCc3[nH]c(=O)c4cc(F)c(F)cc4c32)c1 (single isomer, unassigned) [Compound 319, N-(8,9-Difluoro-6-oxo-1,2,3,4,5,6-hexahydrobenzo[c][1,7]naphthyridin-1-yl)-N-methyl-3-(N-methylsulfamoyl)benzamide] here?
**A.** The EC50 was 6800 nM.

**Q.** With CN(C(=O)c1ccc(C(F)F)cc1)[C@@H]1COCc2[nH]c(=O)c3cc(F)c(F)cc3c21 [Compound 111, (S)-N-(8,9-Difluoro-6-oxo-1,4,5,6-tetrahydro-2H-pyrano[3,4-c]isoquinolin-1-yl)-4-(difluoromethyl)-N-methylbenzamide] as the compound, how does the EC50 [1] read?
**A.** Its EC50 is 20 nM.

**Q.** Which EC50 [1] does the source give for CN(C(=O)c1cc2cc(C(F)F)ccn2c1)[C@@H]1COCc2[nH]c(=O)c3cc(F)c(F)cc3c21 [Compound 374, (S)-N-(8,9-Difluoro-6-oxo-1,4,5,6-tetrahydro-2H-pyrano[3,4-c]isoquinolin-1-yl)-7-(difluoromethyl)-N-methylindolizine-2-carboxamide] here?
**A.** Its EC50 is 24000 nM.

**Q.** CN(C(=O)c1cc2c(C(F)F)cccc2[nH]1)C1CNCc2[nH]c(=O)c3cc(F)c(F)cc3c21 (single isomer, unassigned) [Compound 207, N-(8,9-Difluoro-6-oxo-1,2,3,4,5,6-hexahydrobenzo[c][1,7]naphthyridin-1-yl)-4-(difluoromethyl)-N-methyl-1H-indole-2-carboxamide] was tested. Which EC50 (HepDE19 assay) did it give?
**A.** The EC50 was 5600 nM.
